Source: US20060069132A1, “Azolecarboxamide herbicides” (priority 2004, published 2006)

Experiments:
Assay in all cases: Test E pre-/postemergence herbicide test
Conditions in all cases: Preemergence
green foxtail = type: in vivo, Setaria viridis
How it was run: (§1)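 Greenhouse response scored visually 12 to 14 days after treatment versus controls, 0 meaning no effect and 100 complete control. Compounds, formulated with surfactant in a non-phytotoxic solvent blend, were sprayed either preemergence after sowing or postemergence at the 1- to 4-leaf stage (2 to 18 cm).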

common sowthistle = type: in vivo, Sonchus oleraceous
How it was run: as §1

bermudagrass = type: in vivo, Cynodon dactylon
How it was run: as §1

prickly sida = type: in vivo, Sida spinosa
Text: Seeds of plant species selected from bipinnate beggarticks (Bidens bipinnata L.), hairy beggarticks (Bidens radiata Thuill.), bermudagrass (Cynodon dactylon (L.) Pers.), Surinam grass (Urochloa decumbens (Staph) R. D. Webster, previously named Brachiaria decumbens Stapf), large crabgrass (Digitaria sanguinalis (L.) Scop.), green foxtail (Setaria viridis (L.) P. Beauv.), goosegrass (Eleusine indica (L.) Gaertn.), johnsongrass (Sorghum halepense (L.) Pers.), kochia (Kochia scoparia (L.) Schrad.), pitted morningglory (Ipomoea lacunosa L.), purple nutsedge (Cyperus rotundus L.), common ragweed (Ambrosia elatior L.), mustard (Brassica nigra (L.) W. D. J. Koch), guineagrass (Panicum maximum Jacq.), dallisgrass (Paspalum dilatatum Poir.), barnyardgrass (Echinochloa crus-galli (L). P. Beauv.), southern sandbur (Cenchrus echinatus L.), common sowthistle (Sonchus oleraceous L.), prickly sida (Sida spinosa L.), Italian ryegrass (Lolium multiflorum Lam.), common purslane (Portulaca oleracea L.), broadleaf signalgrass (Brachiaria platyphylla (Griseb.) Nash), common groundsel (Senecio vulgaris L.), common chickweed (Stellaria media (L.) Vill/Cyr.), tropical spiderwort (Commelina benghalensis L.), annual bluegrass (Poa annua L.), downy bromegrass (Bromus tectorum L.), itchgrass (Rottboellia cochinchinensis (L.) L.f.), quackgrass (Elytrigia repens (L.) Nevski), Canada horseweed (Erigeron Canadensis L.), field bindweed (Convolvulus arvensis L.), spotted spurge (Euphorbia maculata L.), common mallow (Malva sylvestris (=s silvestris) L.), and Russian thistle (Salsola kali L. ssp. Ruthenica (Iljin) Soo) were planted and treated preemergence with test chemicals formulated in a non-phytotoxic solvent mixture which included a surfactant.
At the same time, plants selected from these weed species were treated with postemergence applications of some of the test chemicals formulated in the same manner. Plants ranged in height from 2 to 18 cm (1- to 4-leaf stage) for postemergence treatments. Treated plants and controls were maintained in a greenhouse for 12 to 14 days, after which time all species were compared to controls and visually evaluated. Plant response ratings, summarized in Table E, are based on a scale of 0 to 100 where 0 is no effect and 100 is complete control. A dash (-) response means no test result.

goosegrass = type: in vivo, Eleusine indica
How it was run: as §1

large crabgrass = type: in vivo, Digitaria sanguinalis
How it was run: as §1

common purslane = type: in vivo, Portulaca oleracea
How it was run: as §1

mustard = type: in vivo, Brassica nigra
How it was run: as §1

johnsongrass = type: in vivo, Sorghum halepense
How it was run: as §1

Russian thistle = type: in vivo, Salsola kali
How it was run: as §1

barnyardgrass = type: in vivo, Echinochloa crus-galli
How it was run: as §1

annual bluegrass = type: in vivo, Poa annua
How it was run: as §1

common groundsel = type: in vivo, Senecio vulgaris
How it was run: as §1

downy bromegrass = type: in vivo, Bromus tectorum
How it was run: as §1

quackgrass = type: in vivo, Elytrigia repens
How it was run: as §1

common ragweed = type: in vivo, Ambrosia elatior
How it was run: as §1

Surinam grass = type: in vivo, Urochloa decumbens
How it was run: as §1

[1] = 250 g ai/ha, scale 0 (no effect) to 100 (complete control)
[2] = 500 g ai/ha, scale 0 (no effect) to 100 (complete control)

CCc1nn(C(C)(C)CC)nc1C(=O)Nc1cccc(C(=O)N(C)C)c1 [Compound 372]
Plant response rating, Foxtail, Green (green foxtail; 62 g ai/ha, scale 0 to 100): 10
Plant response rating, Foxtail, Green (green foxtail; 125 g ai/ha, scale 0 to 100): 50
Plant response rating, Foxtail, Green (green foxtail; [1]): 60
Plant response rating, Foxtail, Green (green foxtail; [2]): 70
Plant response rating, Sowthistle (common sowthistle; 62 g ai/ha, scale 0 to 100): 10
Plant response rating, Sowthistle (common sowthistle; 125 g ai/ha, scale 0 to 100): 40
Plant response rating, Sowthistle (common sowthistle; [1]): 40
Plant response rating, Sowthistle (common sowthistle; [2]): 95
Plant response rating, Bermudagrass (bermudagrass; 62 g ai/ha, scale 0 to 100): 10
Plant response rating, Bermudagrass (bermudagrass; 125 g ai/ha, scale 0 to 100): 60
Plant response rating, Bermudagrass (bermudagrass; [1]): 60
Plant response rating, Bermudagrass (bermudagrass; [2]): 90
Plant response rating, Prickly Sida (prickly sida; 62 g ai/ha, scale 0 to 100): 20
Plant response rating, Prickly Sida (prickly sida; [1]): 95
Plant response rating, Prickly Sida (prickly sida; [2]): 95
Plant response rating, Goosegrass (goosegrass; 62 g ai/ha, scale 0 to 100): 40
Plant response rating, Goosegrass (goosegrass; 125 g ai/ha, scale 0 to 100): 40
Plant response rating, Goosegrass (goosegrass; [1]): 50
Plant response rating, Goosegrass (goosegrass; [2]): 75
Plant response rating, Crabgrass, Large (large crabgrass; 62 g ai/ha, scale 0 to 100): 10
Plant response rating, Crabgrass, Large (large crabgrass; 125 g ai/ha, scale 0 to 100): 50
Plant response rating, Crabgrass, Large (large crabgrass; [1]): 70
Plant response rating, Crabgrass, Large (large crabgrass; [2]): 100
Plant response rating, Purslane (common purslane; 62 g ai/ha, scale 0 to 100): 10
Plant response rating, Purslane (common purslane; 125 g ai/ha, scale 0 to 100): 40
Plant response rating, Purslane (common purslane; [1]): 50
Plant response rating, Purslane (common purslane; [2]): 100
Plant response rating, Black Mustard (mustard; 62 g ai/ha, scale 0 to 100): 100
Plant response rating, Black Mustard (mustard; 125 g ai/ha, scale 0 to 100): 100
Plant response rating, Black Mustard (mustard; [1]): 100
Plant response rating, Black Mustard (mustard; [2]): 100
Plant response rating, Johnsongrass (johnsongrass; 62 g ai/ha, scale 0 to 100): 30
Plant response rating, Johnsongrass (johnsongrass; 125 g ai/ha, scale 0 to 100): 50
Plant response rating, Johnsongrass (johnsongrass; [1]): 70
Plant response rating, Johnsongrass (johnsongrass; [2]): 80
Plant response rating, Thistle (Russian thistle; 125 g ai/ha, scale 0 to 100): 40
Plant response rating, Thistle (Russian thistle; [2]): 80
Plant response rating, Barnyardgrass (barnyardgrass; 62 g ai/ha, scale 0 to 100): 50
Plant response rating, Barnyardgrass (barnyardgrass; 125 g ai/ha, scale 0 to 100): 70
Plant response rating, Barnyardgrass (barnyardgrass; [1]): 80
Plant response rating, Barnyardgrass (barnyardgrass; [2]): 95
Plant response rating, Bluegrass (annual bluegrass; 62 g ai/ha, scale 0 to 100): 30
Plant response rating, Bluegrass (annual bluegrass; 125 g ai/ha, scale 0 to 100): 80
Plant response rating, Bluegrass (annual bluegrass; [1]): 95
Plant response rating, Bluegrass (annual bluegrass; [2]): 95
Plant response rating, Groundsel (common groundsel; 62 g ai/ha, scale 0 to 100): 20
Plant response rating, Groundsel (common groundsel; 125 g ai/ha, scale 0 to 100): 70
Plant response rating, Groundsel (common groundsel; [1]): 70
Plant response rating, Groundsel (common groundsel; [2]): 95
Plant response rating, Bromegrass, Downy (downy bromegrass; 62 g ai/ha, scale 0 to 100): 20
Plant response rating, Bromegrass, Downy (downy bromegrass; 125 g ai/ha, scale 0 to 100): 70
Plant response rating, Bromegrass, Downy (downy bromegrass; [1]): 80
Plant response rating, Bromegrass, Downy (downy bromegrass; [2]): 85
Plant response rating, Quackgrass (quackgrass; 62 g ai/ha, scale 0 to 100): 30
Plant response rating, Quackgrass (quackgrass; 125 g ai/ha, scale 0 to 100): 60
Plant response rating, Quackgrass (quackgrass; [1]): 95
Plant response rating, Quackgrass (quackgrass; [2]): 95
Plant response rating, Ragweed (common ragweed; 62 g ai/ha, scale 0 to 100): 10
Plant response rating, Ragweed (common ragweed; 125 g ai/ha, scale 0 to 100): 20
Plant response rating, Ragweed (common ragweed; [1]): 40
Plant response rating, Ragweed (common ragweed; [2]): 70
Plant response rating, Surinam Grass (Surinam grass; 125 g ai/ha, scale 0 to 100): 40
Plant response rating, Surinam Grass (Surinam grass; [2]): 75
